Measured values published in ChEMBL document CHEMBL1137910, “Synthesis and biological activity of novel antibacterial quinazolines” (2004).

Tests used:
Type in all cases: functional
Pseudomonas aeruginosa = test: Ability to inhibit growth of Pseudomonas aeruginosa MTCC 1034 was determined
Bacillus subtilis = test: Ability to inhibit growth of Bacillus subtilis MTCC 121 was determined
Staphylococcus aureus = test: Ability to inhibit growth of Staphylococcus aureus MTCC1430 was determined
Shigella sonnei = test: Ability to inhibit growth of Shigella sonnei MTCC 2957 was determined
Enterococcus faecalis = test: Ability to inhibit growth of Enterococcus faecalis MTCC 439 was determined
Klebsiella pneumoniae = test: Ability to inhibit growth of Klebsiella pneumoniae MTCC 109 was determined
Proteus vulgaris = test: Ability to inhibit growth of Proteus vulgaris MTCC744 was determined
Bacillus cereus = test: Ability to inhibit growth of Bacillus cereus MTCC 1272 was determined
Escherichia coli = test: Ability to inhibit growth of Escherichia coli MTCC 42 was determined

Row | SMILES | Growth Inhibition (Pseudomonas aeruginosa) | Growth Inhibition (Bacillus subtilis) | Growth Inhibition (Staphylococcus aureus) | Growth Inhibition (Shigella sonnei) | Growth Inhibition (Enterococcus faecalis) | Growth Inhibition (Klebsiella pneumoniae) | Growth Inhibition (Proteus vulgaris) | Growth Inhibition (Bacillus cereus) | Growth Inhibition (Escherichia coli)
1 | Cc1ccc2nc(-c3ccccc3)nc(-c3ccc(N(C)C)cc3)c2c1 | 18 mm | 15 mm | 11 mm | 16 mm | 12 mm | 19 mm | 17 mm | 14 mm | 18 mm
2 | COc1ccc(-c2nc(-c3ccccc3)nc3ccc(C)cc23)cc1 | 16 mm | 12 mm | 0 mm | 15 mm | 12 mm | 17 mm | 15 mm | 13 mm | 16 mm
3 | COc1ccc(-c2nc(N3CCCCC3)nc3ccc(C)cc23)cc1 | 15 mm | 21 mm | 19 mm | 21 mm | 16 mm | 20 mm | 18 mm | 16 mm | 19 mm
4 | Cc1ccc2nc(N3CCOCC3)nc(-c3ccccc3)c2c1 | 19 mm | 16 mm | 12 mm | 20 mm | 16 mm | 19 mm | 18 mm | 15 mm | 21 mm
5 | Cc1ccc2nc(N3CCOCC3)nc(-c3ccc(N(C)C)cc3)c2c1 | 16 mm | 18 mm | 22 mm | 19 mm | 17 mm | 20 mm | 18 mm | 19 mm | 20 mm
6 | O=C(O)c1cn(C2CC2)c2cc(N3CCNCC3)c(F)cc2c1=O [CIPROFLOXACIN] | 18 mm | 22 mm | 21 mm | 21 mm | 16 mm | 18 mm | 19 mm | 17 mm | 22 mm
